Source: BindingDB's records for doi:10.1021/jm500308c (University Jena, 2014)

How the values were obtained:
[1] = biological target: Signal transducer and activator of transcription 3 (Homo sapiens, UniProt P40763); assay: Inhibition of STAT3 transcriptional activity in human HaCaT cells after 6 hrs by luciferase reporter gene assay
[2] = biological target: T1, Nuclear factor erythroid 2-related factor 2 (Homo sapiens, UniProt Q16236); assay: Activation of Nrf2 transcriptional activity in human LNCaP cells after 6 hrs by luciferase reporter gene assay relative to tert-butylhydroquinone
T1 sequence (Q16236 whole entry): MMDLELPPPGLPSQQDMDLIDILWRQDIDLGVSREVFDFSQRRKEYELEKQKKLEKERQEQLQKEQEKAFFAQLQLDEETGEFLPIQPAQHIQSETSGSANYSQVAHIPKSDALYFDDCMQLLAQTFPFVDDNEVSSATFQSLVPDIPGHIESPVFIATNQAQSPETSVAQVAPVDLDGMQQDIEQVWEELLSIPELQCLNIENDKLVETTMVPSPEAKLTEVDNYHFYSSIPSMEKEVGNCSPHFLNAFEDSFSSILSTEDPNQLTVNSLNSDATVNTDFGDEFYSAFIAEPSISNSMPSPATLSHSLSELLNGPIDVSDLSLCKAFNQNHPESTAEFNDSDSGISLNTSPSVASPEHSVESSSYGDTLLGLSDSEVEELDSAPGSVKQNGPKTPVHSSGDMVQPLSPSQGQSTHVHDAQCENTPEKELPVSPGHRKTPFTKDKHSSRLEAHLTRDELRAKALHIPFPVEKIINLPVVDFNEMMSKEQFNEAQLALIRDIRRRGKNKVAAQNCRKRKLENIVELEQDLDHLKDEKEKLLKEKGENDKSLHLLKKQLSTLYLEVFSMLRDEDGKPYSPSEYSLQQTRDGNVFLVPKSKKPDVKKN

Signal transducer and activator of transcription 3, sequence (P40763 whole entry): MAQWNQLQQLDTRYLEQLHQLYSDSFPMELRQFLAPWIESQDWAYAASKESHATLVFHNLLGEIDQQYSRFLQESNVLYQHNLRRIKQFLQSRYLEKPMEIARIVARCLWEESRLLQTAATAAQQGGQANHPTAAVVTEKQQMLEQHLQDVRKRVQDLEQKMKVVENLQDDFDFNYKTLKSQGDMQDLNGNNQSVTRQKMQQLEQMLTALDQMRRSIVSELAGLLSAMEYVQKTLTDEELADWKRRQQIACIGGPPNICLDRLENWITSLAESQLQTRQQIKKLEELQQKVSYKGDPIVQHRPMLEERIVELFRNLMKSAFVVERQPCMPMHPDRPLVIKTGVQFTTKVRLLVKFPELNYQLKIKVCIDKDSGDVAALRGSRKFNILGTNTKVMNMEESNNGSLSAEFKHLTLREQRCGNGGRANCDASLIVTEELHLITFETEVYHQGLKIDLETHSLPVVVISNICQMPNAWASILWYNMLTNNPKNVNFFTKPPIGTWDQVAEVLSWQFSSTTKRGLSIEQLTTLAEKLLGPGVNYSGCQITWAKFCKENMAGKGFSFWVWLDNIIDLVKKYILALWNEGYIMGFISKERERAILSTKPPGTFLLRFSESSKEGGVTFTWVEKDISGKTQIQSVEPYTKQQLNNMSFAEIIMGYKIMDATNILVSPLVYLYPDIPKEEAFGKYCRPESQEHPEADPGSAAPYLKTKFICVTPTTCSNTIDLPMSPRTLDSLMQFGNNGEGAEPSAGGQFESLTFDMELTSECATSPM

IC50 [1] [µM]	EC50 [2] [µM]	Structure (SMILES)
> 50	–	COc1cc(CCC(=O)CC(=O)CCc2cc(CCC(C)C)c(O)c(OC)c2)cc(CCC(C)C)c1O
22.4	–	COc1cc(/C=C/C(=O)/C=C/c2cc(CC=C(C)C)c(O)c(OC)c2)cc(CC=C(C)C)c1O
35.7	–	COc1cc(/C=C/C(=O)CC(=O)c2ccc(O)c(OC)c2)ccc1O
18.2	–	COc1cc(/C=C/c2cc(-c3ccc(O)c(OC)c3)[nH]n2)ccc1O
19.4	3.1	COc1cc(/C=C/C(=O)/C=C/c2cc(F)c(O)c(OC)c2)cc(F)c1O
15.6	8.6	COc1cc(/C=C/C(=O)CC(=O)/C=C/c2cc(F)c(O)c(OC)c2)cc(F)c1O
> 50	–	COc1cc(/C=C/c2cc(/C=C/c3cc(CC=C(C)C)c(O)c(OC)c3)[nH]n2)cc(CC=C(C)C)c1O
> 50	–	COc1cc(/C=C/C(=O)CC(=O)/C=C/c2cc(CC=C(C)C)c(O)c(OC)c2)cc(CC=C(C)C)c1O
–	9.9	COc1cc(C=CC(=O)CC(=O)C=Cc2ccc(O)c(OC)c2)ccc1O
> 50	–	COc1cc(CCC(=O)CC(=O)CCc2ccc(O)c(OC)c2)ccc1O [1,7-Bis-(4-hydroxy-3-methoxy-phenyl)-heptane-3,5-dione]
16.2	–	COc1cc(/C=C/c2cc(/C=C/c3ccc(O)c(OC)c3)[nH]n2)ccc1O [4-(2-(5-(4-hydroxy-3-methoxystyryl)-1H-pyrazol-3-yl)vinyl)-2-methoxyphenol]
6	0.9	COc1cc(/C=C/C(=O)/C=C/c2ccc(O)c(OC)c2)ccc1O [(1E,4E)-1,5-Bis-(4-hydroxy-3-methoxy-phenyl)-penta-1,4-dien-3-one]
